Assays:
[1] = Plasma stability assay, human serum; type: in vitro ADME
Description: (§1) Rat or human serum adjusted at pH 7.4 with lactic acid or ammonium hydroxide, were equilibrated at 37° C. under orbital shaking in an incubator containing 5% CO2. The reaction was initiated by the addition of 1 μM of compounds (1.5 μl of 1 mM stock solution in DMSO in 1498.5 μl of plasma). At 0.01, 0.25, 0.5, 1, 2, 3, 4 and 6 h, aliquots (100 μl) were transferred in a 96 well plate containing 300 μl MeOH placed on ice to stop the reaction. After vortexing for 20 min at 1400 rpm on an Eppendorf thermomixer, the plates were centrifuged at 3220 g for 20 min at 4° C. and the supernatants were analyzed with LC-MS/MS. Calibration samples in plasma containing 0.1% of dichlorvos were prepared and analysed in parallel to the incubation samples to allow the quantification. Half lives (T1/2) in hours were then calculated. In addition the remaining concentration of the respective compound after time Tlast relative to the concentration at the beginning has been determined (table 2).

[2] = target: T1, recombinant human ALX receptor (Homo sapiens, UniProt P25090); experiment: Intracellular calcium measurements (FLIPR), ALX receptor agonistic activity; type: cell-based; details: HEK293-hALXR-Gα16 cells; median of n replications; normalized to WKYMVm 10 nM; read-out: EC50, agonistic activity with respect to the ALX receptor
T1 construct: expressed in transfected cells; host or cells: HEK293 (HEK293-hALXR-Gα16)
T1 sequence (P25090 1-351): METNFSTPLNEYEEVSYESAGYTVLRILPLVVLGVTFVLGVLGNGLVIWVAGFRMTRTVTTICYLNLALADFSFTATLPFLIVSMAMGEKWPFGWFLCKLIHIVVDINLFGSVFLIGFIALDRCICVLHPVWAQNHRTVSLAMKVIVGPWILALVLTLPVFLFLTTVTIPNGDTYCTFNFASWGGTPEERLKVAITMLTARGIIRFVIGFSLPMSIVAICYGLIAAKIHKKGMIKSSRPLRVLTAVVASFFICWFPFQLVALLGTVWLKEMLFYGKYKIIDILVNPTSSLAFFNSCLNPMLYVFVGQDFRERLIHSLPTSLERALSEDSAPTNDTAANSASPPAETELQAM
Description: The ALX receptor agonistic activity of the compounds of formula (I) is determined in accordance with the following experimental method.
Intracellular Calcium Measurements:
Cells expressing recombinant human ALX receptor and the G-protein Gα16 (HEK293-hALXR-Gα16) were grown to 80% confluency in Growing Medium (GM). Cells were detached from culture dishes with a cell dissociation buffer (Invitrogen, 13151-014), and collected by centrifugation at 1′000 rpm at rt for 5 min in Assay Buffer (AB) (equal parts of Hank's BSS (Gibco, 14065-049) and DMEM without Phenol Red (Gibco, 11880-028)). After 60 min incubation at 37° C. under 5% CO2 in AB supplemented with 1 μM Fluo-4 (AM) (Invitrogen, F14202) and 20 mM HEPES (Gibco, 15630-056), the cells were washed and resuspended in AB. They were then seeded onto 384-well FLIPR assay plates (Greiner, 781091) at 50′000 cells in 70 μl per well and sedimented by centrifugation at 1′000 rpm for 1 min. Stock solutions of test compounds were made up at a concentration of 10 mM in DMSO, and serially diluted in AB to concentrations required for activation dose response curves. WKYMVm (Phoenix Peptides) was used as a reference agonist. […] Changes in fluorescence were monitored before and after the addition of test compounds at lex=488 nm and lem=540 nm. […]

[3] = Plasma stability assay, rat serum; type: in vitro ADME
Description: as §1

With Cc1ccc(C2(NC(=O)C3C(C(=O)NCCN4CCN(C)CC4)C4CCC3C43CC3)CC2)cc1 [Example 1, (5R)-N^5-(1-(p-tolyl)cyclopropyl)-(6R)-N^6-(2-(4-methylpiperazin-1-yl)ethyl)-(4S,7R)-[4,7-ethylene-spiro[2.4]heptane]-5,6-dicarboxamide] the “remaining concentration at Tlast” value ([1]; Tlast 6 h, 1 μM, 37° C.) was 82%, the half-life at 1 μM ([1]; pH 7.4, 37° C.) was > 6 h and the EC50 [2] was 9.4 nM. For the same molecule, the “remaining concentration at Tlast” value ([3]; Tlast 6 h, 1 μM, 37° C.) was 100% and the half-life at 1 μM ([3]; pH 7.4, 37° C.) was > 6 h.
